# Source: publication PMC6416464 (Drug Metabolism Letters, 2018)
# Columns and labels:
# CYP3A4 [1] = target: T1, CYP3A4 (Homo sapiens, UniProt P08684); test: in vitro; conditions: microsomes, pH 7.4, % Inhibition of Control Activity CYP3A4 (substrate, testosterone)
# CYP2C8 = target: T2, CYP2C8 (Homo sapiens, UniProt P10632); test: CYP inhibition in human liver microsomes, CYP2C8; conditions: human, human liver microsomes, pH 7.4, probe paclitaxel
# T2 sequence (P10632 1-490): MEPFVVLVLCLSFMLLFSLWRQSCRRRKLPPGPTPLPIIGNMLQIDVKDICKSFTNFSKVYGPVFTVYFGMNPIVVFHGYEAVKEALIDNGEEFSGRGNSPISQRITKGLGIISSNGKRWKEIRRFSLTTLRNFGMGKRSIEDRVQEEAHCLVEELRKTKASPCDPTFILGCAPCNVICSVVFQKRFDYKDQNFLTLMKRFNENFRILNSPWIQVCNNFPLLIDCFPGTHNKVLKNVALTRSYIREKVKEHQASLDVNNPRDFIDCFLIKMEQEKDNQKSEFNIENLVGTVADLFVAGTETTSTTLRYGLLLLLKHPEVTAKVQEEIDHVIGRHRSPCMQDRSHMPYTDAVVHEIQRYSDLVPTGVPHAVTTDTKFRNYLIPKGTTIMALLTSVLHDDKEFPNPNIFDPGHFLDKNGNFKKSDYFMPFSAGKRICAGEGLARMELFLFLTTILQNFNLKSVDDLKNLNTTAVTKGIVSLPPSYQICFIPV
# [2] = Metabolic stability, incubation with human liver cytosol; format: in vitro ADME; conditions: 1 µM test compound, 1 mg/mL protein
# CYP3A4 [3] = target: T1, CYP3A4; test: in vitro; conditions: microsomes, pH 7.4
# [4] = Metabolic stability, incubation with human liver microsomes; conditions: 1 µM test compound, 0.5 mg/mL protein
# rCYP2D6 = rCYP2D6 (Homo sapiens, UniProt P10635); test: Metabolic stability / reaction phenotyping with recombinant human CYP2D6; conditions: for % Metabolized at 30 min Incubation with Human Liver Fractions/Enzymes rCYP2D6: 1 µM test compound, 100 pmol/mL
# rCYP2C9 = rCYP2C9 (Homo sapiens, UniProt P11712); test: Metabolic stability / reaction phenotyping with recombinant human CYP2C9; conditions: for % Metabolized at 30 min Incubation with Human Liver Fractions/Enzymes rCYP2C9: 1 µM test compound, 100 pmol/mL
# rCYP1A2 = target: T3, rCYP1A2 (Homo sapiens, UniProt P05177); test: Metabolic stability / reaction phenotyping with recombinant human CYP1A2; conditions: for % Metabolized at 30 min Incubation with Human Liver Fractions/Enzymes rCYP1A2: 1 µM test compound, 100 pmol/mL
# T3 sequence (P05177 1-516): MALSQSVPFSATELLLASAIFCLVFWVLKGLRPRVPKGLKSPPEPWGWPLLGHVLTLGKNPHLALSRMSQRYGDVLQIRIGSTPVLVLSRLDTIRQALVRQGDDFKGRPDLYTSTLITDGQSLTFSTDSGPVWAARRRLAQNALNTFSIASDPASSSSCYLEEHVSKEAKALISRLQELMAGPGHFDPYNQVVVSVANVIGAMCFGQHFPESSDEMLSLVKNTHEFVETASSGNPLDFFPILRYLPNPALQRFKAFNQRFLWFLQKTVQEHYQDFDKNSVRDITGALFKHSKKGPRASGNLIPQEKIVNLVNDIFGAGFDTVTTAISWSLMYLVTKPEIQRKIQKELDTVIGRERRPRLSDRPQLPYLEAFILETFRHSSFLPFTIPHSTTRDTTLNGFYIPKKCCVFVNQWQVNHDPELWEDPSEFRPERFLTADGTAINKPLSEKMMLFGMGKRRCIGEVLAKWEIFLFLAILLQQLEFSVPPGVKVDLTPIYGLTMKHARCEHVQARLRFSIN
# CYP1A2 = target: T4, CYP1A2 (Homo sapiens, UniProt P05177); test: CYP inhibition in human liver microsomes, CYP1A2
# T4 sequence (P05177 1-516): T3 sequence (P05177 1-516)
# rCYP2C19 = rCYP2C19 (Homo sapiens, UniProt P33261); test: Metabolic stability / reaction phenotyping with recombinant human CYP2C19
# rCYP2C8 = target: T5, rCYP2C8 (Homo sapiens, UniProt P10632); test: Metabolic stability / reaction phenotyping with recombinant human CYP2C8
# T5 sequence (P10632 1-490): T2 sequence (P10632 1-490)
# rCYP3A4 = rCYP3A4 (Homo sapiens, UniProt P08684)
# [5] = human, recombinant human CYP2D6, 1 µM, pH 7.4
# [6] = 1 µM test compound, 100 pmol/mL, 30 min
# [7] = human, recombinant human CYP2C19, 1 µM, pH 7.4
# [8] = human, recombinant human CYP1A2, 1 µM, pH 7.4
# [9] = human, recombinant human CYP2C9, 1 µM, pH 7.4
# [10] = human, recombinant human CYP2C8, 1 µM, pH 7.4
# [11] = human, recombinant enzyme, pH 7.4
# T1 sequence (P08684 2-503): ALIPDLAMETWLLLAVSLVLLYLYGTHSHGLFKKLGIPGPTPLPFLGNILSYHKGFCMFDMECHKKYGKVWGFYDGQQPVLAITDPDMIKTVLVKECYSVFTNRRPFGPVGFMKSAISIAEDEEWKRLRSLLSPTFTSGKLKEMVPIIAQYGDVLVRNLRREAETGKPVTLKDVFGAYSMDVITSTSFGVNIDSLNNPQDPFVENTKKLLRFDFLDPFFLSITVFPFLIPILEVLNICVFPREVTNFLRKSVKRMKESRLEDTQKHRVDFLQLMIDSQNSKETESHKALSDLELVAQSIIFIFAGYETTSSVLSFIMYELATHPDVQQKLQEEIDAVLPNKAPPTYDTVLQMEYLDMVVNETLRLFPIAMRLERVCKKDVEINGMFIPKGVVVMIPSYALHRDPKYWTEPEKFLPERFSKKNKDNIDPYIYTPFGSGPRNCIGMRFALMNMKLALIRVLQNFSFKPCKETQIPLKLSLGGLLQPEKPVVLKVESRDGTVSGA
# Sequence of rCYP2C9 (P11712 whole entry): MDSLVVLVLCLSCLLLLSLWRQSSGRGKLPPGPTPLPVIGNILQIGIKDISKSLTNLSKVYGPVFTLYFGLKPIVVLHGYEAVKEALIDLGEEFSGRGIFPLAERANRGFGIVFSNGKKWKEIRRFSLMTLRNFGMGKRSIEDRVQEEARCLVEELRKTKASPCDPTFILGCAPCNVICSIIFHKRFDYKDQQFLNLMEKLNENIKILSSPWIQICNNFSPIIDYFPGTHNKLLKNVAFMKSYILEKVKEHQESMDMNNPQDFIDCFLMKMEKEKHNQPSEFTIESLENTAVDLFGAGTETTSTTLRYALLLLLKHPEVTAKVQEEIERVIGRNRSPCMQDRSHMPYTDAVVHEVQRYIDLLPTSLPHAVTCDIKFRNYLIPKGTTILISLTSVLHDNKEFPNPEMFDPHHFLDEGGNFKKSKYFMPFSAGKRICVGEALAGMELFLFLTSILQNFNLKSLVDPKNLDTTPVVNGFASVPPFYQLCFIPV
# Sequence of rCYP2D6 (P10635 whole entry): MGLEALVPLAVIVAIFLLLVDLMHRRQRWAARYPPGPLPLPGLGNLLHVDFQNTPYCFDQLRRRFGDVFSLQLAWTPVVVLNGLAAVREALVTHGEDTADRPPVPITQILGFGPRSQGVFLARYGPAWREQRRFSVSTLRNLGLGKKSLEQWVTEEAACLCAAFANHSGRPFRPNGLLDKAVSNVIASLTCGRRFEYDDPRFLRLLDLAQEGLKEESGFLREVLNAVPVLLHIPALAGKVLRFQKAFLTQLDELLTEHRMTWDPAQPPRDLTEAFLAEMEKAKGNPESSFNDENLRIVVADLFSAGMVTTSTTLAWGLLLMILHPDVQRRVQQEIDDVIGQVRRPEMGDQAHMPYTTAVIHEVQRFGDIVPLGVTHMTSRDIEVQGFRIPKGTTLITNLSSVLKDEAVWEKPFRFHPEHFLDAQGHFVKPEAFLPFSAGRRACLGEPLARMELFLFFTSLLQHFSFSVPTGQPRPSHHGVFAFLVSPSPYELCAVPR
# Sequence of rCYP3A4 (P08684 whole entry): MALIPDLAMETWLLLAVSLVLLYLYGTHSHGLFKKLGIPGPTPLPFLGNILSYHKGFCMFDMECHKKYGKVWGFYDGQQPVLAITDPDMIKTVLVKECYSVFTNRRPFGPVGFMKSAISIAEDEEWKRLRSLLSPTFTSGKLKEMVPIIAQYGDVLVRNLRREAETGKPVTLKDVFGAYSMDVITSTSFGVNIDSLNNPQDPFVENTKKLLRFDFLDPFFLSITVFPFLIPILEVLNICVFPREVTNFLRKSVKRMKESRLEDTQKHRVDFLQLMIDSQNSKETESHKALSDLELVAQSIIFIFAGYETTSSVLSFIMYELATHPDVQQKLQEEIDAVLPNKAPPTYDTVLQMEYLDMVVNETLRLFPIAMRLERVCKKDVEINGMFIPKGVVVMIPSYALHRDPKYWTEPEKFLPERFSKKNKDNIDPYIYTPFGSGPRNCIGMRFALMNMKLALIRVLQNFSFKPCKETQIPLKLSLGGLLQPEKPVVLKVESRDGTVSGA
# Sequence of rCYP2C19 (P33261 whole entry): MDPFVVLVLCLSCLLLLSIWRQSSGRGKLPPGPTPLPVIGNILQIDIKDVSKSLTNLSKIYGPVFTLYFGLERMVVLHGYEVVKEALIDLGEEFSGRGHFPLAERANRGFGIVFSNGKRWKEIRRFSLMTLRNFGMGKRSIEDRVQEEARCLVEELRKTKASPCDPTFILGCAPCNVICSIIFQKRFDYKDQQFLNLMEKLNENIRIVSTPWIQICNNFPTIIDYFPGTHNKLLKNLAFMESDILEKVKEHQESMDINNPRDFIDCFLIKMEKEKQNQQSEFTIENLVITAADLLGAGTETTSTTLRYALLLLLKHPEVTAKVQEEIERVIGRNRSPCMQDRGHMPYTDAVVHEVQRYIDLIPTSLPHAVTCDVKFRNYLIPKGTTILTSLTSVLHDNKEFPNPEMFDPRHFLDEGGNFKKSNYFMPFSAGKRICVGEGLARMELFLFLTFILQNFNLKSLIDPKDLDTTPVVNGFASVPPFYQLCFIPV
smiles,measurement,setting,value
"CNC(=O)O/N=C/C(C)(C)S(C)(=O)=O [Aldicarb sulfone, aldicarb sulfone]",inhibition at 2 µM,CYP3A4 [1],1.83%
same,inhibition at 10 µM,CYP3A4 [1],< 0%
same,inhibition at 2 µM,CYP2C8,2.77%
same,inhibition at 10 µM,CYP2C8,4.1%
same,% Metabolized at 30 min Incubation with Human Liver Fractions/Enzymes Cytosol,[2],0.00%
same,inhibition at 2 µM,CYP3A4 [3],< 0%
same,inhibition at 10 µM,CYP3A4 [3],< 0%
same,% Metabolized at 30 min Incubation with Human Liver Fractions/Enzymes HLM,[4],1.05%
"COc1ccc2c(c1)[C@]13CCCC[C@@H]1[C@H](C2)N(C)CC3 [Dextromethorphan, dextromethorphan]",% Metabolized at 30 min Incubation with Human Liver Fractions/Enzymes rCYP2D6,rCYP2D6,99.81%
"O=C(O)Cc1ccccc1Nc1c(Cl)cccc1Cl [Diclofenac, diclofenac, reference compound]",% Metabolized at 30 min Incubation with Human Liver Fractions/Enzymes rCYP2C9,rCYP2C9,98.61%
"CCOc1ccc(NC(C)=O)cc1 [Phenacetin, phenacetin]",% Metabolized at 30 min Incubation with Human Liver Fractions/Enzymes rCYP1A2,rCYP1A2,91.43%
"CN(C)CCCOc1nn(Cc2ccccc2)c2ccccc12 [Benzydamine, reference compound]",% Metabolized at 30 min Incubation with Human Liver Fractions/Enzymes HLM,[4],16.45%
"O=c1cc(-c2ccccc2)oc2c1ccc1ccccc12 [α-Nepthoflavone, α-naphthoflavone, reference compound]",inhibition at 20 nM,"CYP1A2; human, human liver microsomes, pH 7.4, probe phenacetin, Percent inhibition, positive control inhibitor, CYP1A2, concentration tested 20 nM",62.4%
"CNC(=O)Oc1cc(C)c(SC)c(C)c1 [Methiocarb, methiocarb]",% Metabolized at 30 min Incubation with Human Liver Fractions/Enzymes rCYP2D6,rCYP2D6,99.43%
same,"% Contribution of CYP Enzymes (fmCYP) in Metabolism, CYP2D6",rCYP2D6; [5],7.46%
same,"Predicted Microsomal Clint, CYP2D6",rCYP2D6; [5],17.239 µL/min/mg Protein
same,"rCYP Clint, CYP2D6",rCYP2D6; [5],1.724 µL/min/pmol
same,inhibition at 2 µM,CYP3A4 [1],8.34%
same,inhibition at 10 µM,CYP3A4 [1],29.7%
same,IC50,CYP1A2,0.71 µM
same,% Metabolized at 30 min Incubation with Human Liver Fractions/Enzymes rCYP2C19,rCYP2C19; [6],19.42%
same,"% Contribution of CYP Enzymes (fmCYP) in Metabolism, CYP2C19",rCYP2C19; [7],0.59%
same,"Predicted Microsomal Clint, CYP2C19",rCYP2C19; [7],1.367 µL/min/mg Protein
same,"rCYP Clint, CYP2C19",rCYP2C19; [7],0.072 µL/min/pmol
same,% Metabolized at 30 min Incubation with Human Liver Fractions/Enzymes rCYP1A2,rCYP1A2,46.94%
same,"% Contribution of CYP Enzymes (fmCYP) in Metabolism, CYP1A2",rCYP1A2; [8],4.75%
same,"Predicted Microsomal Clint, CYP1A2",rCYP1A2; [8],10.987 µL/min/mg Protein
same,"rCYP Clint, CYP1A2",rCYP1A2; [8],0.211 µL/min/pmol
same,inhibition at 2 µM,CYP2C8,< 0%
same,inhibition at 10 µM,CYP2C8,< 0%
same,% Metabolized at 30 min Incubation with Human Liver Fractions/Enzymes Cytosol,[2],6.93%
same,inhibition at 2 µM,CYP3A4 [3],< 0%
same,inhibition at 10 µM,CYP3A4 [3],< 0%
same,% Metabolized at 30 min Incubation with Human Liver Fractions/Enzymes HLM,[4],78.39%
same,% Metabolized at 30 min Incubation with Human Liver Fractions/Enzymes rCYP2C9,rCYP2C9,6.50%
same,"% Contribution of CYP Enzymes (fmCYP) in Metabolism, CYP2C9",rCYP2C9; [9],0.93%
same,"Predicted Microsomal Clint, CYP2C9",rCYP2C9; [9],2.151 µL/min/mg Protein
same,"rCYP Clint, CYP2C9",rCYP2C9; [9],0.022 µL/min/pmol
same,% Metabolized at 30 min Incubation with Human Liver Fractions/Enzymes rCYP2C8,rCYP2C8; [6],41.44%
same,"% Contribution of CYP Enzymes (fmCYP) in Metabolism, CYP2C8",rCYP2C8; [10],4.94%
same,"Predicted Microsomal Clint, CYP2C8",rCYP2C8; [10],11.416 µL/min/mg Protein
same,"rCYP Clint, CYP2C8",rCYP2C8; [10],0.178 µL/min/pmol
same,% Metabolized at 30 min Incubation with Human Liver Fractions/Enzymes rCYP3A4,rCYP3A4; [6],98.38%
same,"Predicted Microsomal Clint, CYP3A4","rCYP3A4; human, pH 7.4",188.076 µL/min/mg Protein
same,"% Contribution of CYP Enzymes (fmCYP) in Metabolism, CYP3A4",rCYP3A4; [11],81.34%
same,"rCYP Clint, CYP3A4",rCYP3A4; [11],1.694 µL/min/pmol
